{
  "source": "patent US5179079A",
  "about": "“Nasal formulation and intranasal administration therewith” (Novo Nordisk A/S, priority 1986, dated 1993)",
  "origin": "cited, not measured here",
  "conditions": "compared with intravenous administration",
  "data": [
    {"smiles": "CC(=O)[C@H]1CC[C@H]2[C@@H]3CCC4=CC(=O)CC[C@]4(C)[C@H]3CC[C@]12C", "note": "[progesterone]", "values": [
      {"measurement": "blood levels after absorption from the nasal cavity", "result": "blood levels almost equal to intraveneous administration"}
    ]},
    {"smiles": "CC(C)NCC(O)COc1cccc2ccccc12", "note": "(centres unmarked) [propranolol]", "values": [
      {"measurement": "blood levels after absorption from the nasal cavity", "result": "blood levels almost equal to intraveneous administration"}
    ]}
  ]
}
